The values below come from PubChem BioAssay AID493002 (Sanford-Burnham Center for Chemical Genomics, 2010).

This assay deals with S. cerevisiae tim23-1 mutant growth, luminescence. Briefly: tim23-1 mutant yeast growth inhibitors, dose response, luminescence, uHTS hits (AID 493002).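 Also: yeast grown roughly 22 hours at 25 °C before the luminescence read.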

For `CCCCS/C(N)=N/N=C/c1ccccc1O`, the IC50 is 18.2 µM.
As for `Cn1c(C=O)c(C#Cc2ccccc2)c2ccccc21`, the IC50 was 6.21 µM.
As to `CCCc1nc2c(c(=O)c3ccccc3n2C)c(=O)n1C1CCCCCC1`, the IC50 was 9.44 µM.
With `Cc1ccc(-c2nnc(N3CCC(C)CC3)c3ccccc23)cc1` the figure was 13.7 µM; with `COc1cc(C2CC(c3cccs3)=NN2C(=O)CCl)ccc1OC(F)F` (centres undefined), 21.9 µM.
Under `COc1ccc(CCn2c(C(C)C)nc3oc4ccccc4c(=O)c3c2=O)cc1` stands 14.2 µM; under `COc1ccc(C(=O)COC(=O)c2cncc(Br)c2)cc1`, 10.1 µM.
With `O=C(CN1C(=O)S/C(=C/c2ccncc2)C1=O)Nc1ccccc1` the figure was 13.5 µM; with `COc1ccc2c(c1)OC[C@H]1[C@H]2N2C(=O)c3cc(C)ccc3NC(=O)[C@@]2(C)[C@H]1c1ccccc1`, 13.1 µM; with `Cc1cc2cc(CNC(=O)c3ccc(C)c([N+](=O)[O-])c3)ccc2[nH]1`, 9.14 µM.
For the compound `O=C(c1cc(-c2ccc(O)cc2)on1)N1CCCc2ccccc21`, the IC50 was 12.9 µM.
With `O=C(Nc1ccc(F)c(Cl)c1)c1ccccc1` the figure was 11.5 µM; with `Cn1c(=O)c(C(=O)Nc2ccccn2)c(O)c2ccccc21`, 15.2 µM; with `Nc1ccc(N=Nc2ccccc2O)c(N)c1`, 15.3 µM.
With `O=C(c1cc(-c2cccc(O)c2)on1)N1CCc2ccccc2C1` the figure was 16 µM; with `COc1ccc(CCCC(=O)N/N=C/c2ccc(C)cc2)cc1`, 16.7 µM; with `COc1ccc2c(C(=O)CCl)c[nH]c2c1`, 22.5 µM.
As to `COc1cccc(C(=O)Nc2ccccc2)c1`, the IC50 is 9.33 µM.
With `COc1cccc2c1C(=O)C=C(C)C2=O`, the IC50 is 5.32 µM.
With `Cc1ccc(NC(=O)CN2C(=O)CN=C(c3ccccc3)c3cc(Cl)ccc32)cc1` the figure was 13.1 µM; with `O=C(Nc1ccc(C(=O)N2CCCc3ccccc32)cc1)c1cccs1`, 7.75 µM; with `NC(=O)c1c(NC(=O)c2ccccc2F)sc2c1CCCC2`, 38.3 µM.
Under `COc1ccc(C(=O)c2sc(Nc3ccccc3F)nc2N)cc1` stands 8.51 µM; under `COc1ccc(C(=O)CC(=O)c2ccccc2O)cc1`, 15.1 µM; under `Oc1ccc(-c2csc(Nc3ccccn3)n2)c(O)c1`, 24.9 µM.
Under `Oc1ccc(N=Nc2ccccc2)cc1` stands 15.3 µM.
Consider `Brc1cccc(-c2n[nH]c(-c3ccccc3)n2)c1`, for which the IC50 was 11.5 µM.
With `Oc1ccccc1C1NN=C(c2ccccc2)S1` (centres undefined) the figure was 18.3 µM; with `CC(C)c1nc(NCCO)c(C#N)c2c1CCCC2`, 12.4 µM.
Under `O=C1/C(=C/c2cccs2)COc2ccccc21` stands 8.37 µM; under `Cc1ccccc1OCCCSc1nc2ccccc2[nH]1`, 9.44 µM; under `COc1ccc(C(=O)N/N=C\c2coc3ccccc3c2=O)cc1`, 13.7 µM.
With `CCCCc1cc(O)c(CCCC)c(O)c1` the figure was 3.69 µM.
With `CC1CCN(c2ccc(-c3cccs3)nn2)CC1`, the IC50 was 6.21 µM.
With `CCCCCCSC1=C(C#N)C(c2ccccc2)CC(=O)N1` (centres undefined) the figure was 13.4 µM; with `CC1=CC(C)(C)N(C(=O)c2ccc(F)cc2)c2cc3c(cc21)OCO3`, 14.3 µM; with `Cc1csc2nc(O)c(C(=O)NC3CCCCC3)c(=O)n12`, 8.51 µM.
With `N#Cc1c(-c2ccccc2)cc(-c2ccc(O)cc2)nc1N` the figure was 5.58 µM; with `NC(N)=N/N=C/c1ccc(OCc2ccccc2Cl)cc1`, 18 µM.
With `Cn1c(-c2sc3ccccc3c2Cl)n[nH]c1=S` the figure was 7.61 µM; with `CCNC(=O)c1c(O)c2ccccc2[nH]c1=O`, 33.5 µM.
Take `O=Cc1cn(CCOc2ccccc2F)c2ccccc12`: the IC50 was 13 µM.
Take `O=C(Nc1ccc2c(c1)OCCO2)c1cccc(Br)c1`: the IC50 was 14.5 µM.
As for `c1ccc(-n2nc3c(ccc4cnnc43)[nH]2)cc1`, the IC50 is 24.5 µM.
Under `C=CCNC(=O)c1ccc2c3n(nc2c1)-c1ccc(Cl)cc1CO3` stands 6.9 µM; under `O=C(NCCCc1ccccc1)c1c(O)nc2sccn2c1=O`, 4.63 µM.
With `O=C(Nc1ccn(Cc2ccc(Cl)cc2)n1)c1ccc2c(c1)OCO2` the figure was 11.1 µM.
For `O=C(CC(=O)c1cc(Cl)ccc1O)c1ccccc1`, the IC50 was 7.07 µM.
With `CN1C(=O)C(=Cc2ccccc2OS(=O)(=O)c2ccccc2)C(=O)N(C)C1=O` the figure was 6.59 µM; with `Cc1ccc(C(=O)C(C)OC(=O)c2cc3cc([N+](=O)[O-])ccc3oc2=O)cc1` (centres undefined), 14.9 µM; with `CCN(CC)c1ccc(/C=N/NC(=O)c2ccc3c(c2)OCCO3)cc1`, 11.3 µM.
With `CC(C)(C)C(=O)c1sc(Nc2ccccc2)nc1N` the figure was 12 µM; with `Nc1ccc2nc(SCc3ccccc3F)sc2c1`, 7.18 µM; with `CC1c2[nH]c3ccccc3c2CCN1C(=O)Nc1ccccc1` (centres undefined), 12.1 µM.
With `O=C(Nc1cccc(Br)c1)C1CCCC1` the figure was 7.64 µM.
On to `O=C(COc1ccccc1)N/N=C/c1ccc([N+](=O)[O-])o1`, for which the IC50 is 6.56 µM.
Under `Cc1ccccc1[C@@]1(C)ON(c2ccccc2C(F)(F)F)C1=O` stands 7.04 µM; under `Cc1ccc2nc(-c3ccc(N)cc3)sc2c1`, 9.95 µM; under `Cc1nc(-c2ccc(NC(=O)c3ccccc3)cc2)cs1`, 13 µM.
`Oc1ccc2ccccc2c1/C=N/c1nccs1`: the IC50 was 10.4 µM.
With `Cc1ccc2nc(NC(=O)COC(=O)c3cccnc3)sc2c1` the figure was 9.58 µM; with `CC(=O)c1sc(-c2ccc(Cl)cc2)cc1N`, 18.8 µM; with `CCOC(=O)Nc1ccc2c(c1)Nc1ccccc1S2`, 11.3 µM.
Under `Cc1[nH]c2ccccc2c1C(=O)/C=C/c1ccccc1` stands 9.05 µM; under `CC1=NN(c2ccccc2)C(=O)/C1=C/c1c(O)n(-c2ccc(F)c(Cl)c2)[nH]c1=O`, 24.3 µM.
Consider `O=C1NC(=S)SC1=C1CCCCCC1`, for which the IC50 was 7.78 µM.
With `COc1ccc(N2CCC(CNC(=S)Nc3ccc(C)cc3C)C2)cc1` (centres undefined) the figure was 7.54 µM; with `O=C1/C(=C/c2cccs2)Cc2ccccc21`, 16.1 µM; with `COc1ccc(N2CCN(CCC(=O)c3ccc4ccccc4c3)CC2)cc1`, 8.84 µM.
Turning to `Cc1cc(=O)oc2c1c(C(F)(F)F)nn2-c1ccccc1`, the IC50 was 7.85 µM.
Regarding `NS(=O)(=O)c1ccc(N=Cc2c(O)n(C3CCCCC3)c(=O)n(C3CCCCC3)c2=O)cc1`, the IC50 was 14.4 µM.
Under `O=c1oc(Cl)c(Cl)c2ccccc12` stands 3.83 µM.
With `COc1ccc(NC(=O)C#Cc2ccccc2)cc1` the figure was 6.06 µM.
With `N#C/C(=C\c1c[nH]c2ccccc12)C(=O)NC1CCCC1` the figure was 31.5 µM; with `Cc1ccc(CS(=O)(=O)c2ncc(Cl)c(C(=O)Nc3ccc(OC(F)F)cc3)n2)cc1`, 1.86 µM; with `O=C(Nc1ccc(Nc2ccccc2)cc1)c1ccc(Cl)c([N+](=O)[O-])c1`, 6.25 µM.
For `CCSc1ncc(/C=N/Nc2ccc(Cl)cc2)n1C`, the IC50 is 5.9 µM.
Under `c1ccc(Nc2nc(-c3ccccc3)nc3ccccc23)cc1` stands 5.08 µM.
With `Cc1ccc(OCc2cc(C(=O)NCc3cnn(-c4cccc(F)c4)c3)no2)cn1` the figure was 14.8 µM.
